Literature values as cited in patent publication US20070254858A1, “Contraceptive and Acne Medication Combination and Treatment of Acne and Other Diseases with Reduced Side Effects” (priority 2006, published 2007).
One block for each compound: values may come before it.

How the values were obtained:
[1] = test system: progesterone activity; conditions: 1 mg of progestin; activity of 1 mg of norethindrone taken as baseline
[2] = in vivo
[3] = test system: severe acne; conditions: within 12 to 16 weeks of isotretinoin treatment
[4] = test system: sebaceous gland / sebocytes
[5] = test system: androgen (testosterone-like) activity; conditions: 1 mg of progestin; activity of 1 mg of norethindrone taken as baseline

Structure (SMILES): C#C[C@]1(OC(C)=O)CC[C@H]2[C@@H]3CCC4=C[C@@H](OC(C)=O)CC[C@@H]4[C@H]3CC[C@@]21C [ethynodiol diacetate]
- Progestational Activity [1]: 1.4

Structure (SMILES): C#C[C@]1(O)CC[C@H]2[C@@H]3CCC4=CC(=O)CC[C@@H]4[C@H]3CC[C@@]21C [norethindrone]
- Progestational Activity [1]: 1

Structure (SMILES): C#CC1(O)CC[C@H]2[C@@H]3CCC4=CC(=O)CC[C@@H]4[C@H]3CC[C@@]21CC (mixture of isomers) [dl-norgestrel]
- Progestational Activity [1]: 2.6

Structure (SMILES): C#C[C@]1(OC(C)=O)CC[C@H]2[C@@H]3CCC4=CC(=NO)CC[C@@H]4[C@H]3CC[C@@]21CC (mixture of isomers) [norgestimate]
- Progestational Activity [1]: 1.3

Structure (SMILES): C#C[C@]1(O)CC[C@H]2[C@@H]3CCC4=CCCC[C@@H]4[C@H]3C(=C)C[C@@]21CC [desogestrel]
- Progestational Activity [1]: 9

Structure (SMILES): C#C[C@]1(OC(C)=O)CC[C@H]2[C@@H]3CCC4=CC(=O)CC[C@@H]4[C@H]3CC[C@@]21C [norethindrone acetate]
- Progestational Activity [1]: 1.2

- effect of food on absorption (drug taken with food): absorption is enhanced
- accumulation in the skin (during long term administration): no progressive accumulation
- placental transfer (oral isotretinoin): crosses the placenta
- half-life (oral isotretinoin, compared to etretinate): 7 to 37 h
Structure (SMILES): CC1=C(/C=C/C(C)=C/C=C/C(C)=C\C(=O)O)C(C)(C)CCC1 [isotretinoin, 13-cis-retinoic acid]
- most significant side effect [2]: teratogenicity (birth defects)
- parent drug in urine (oral isotretinoin): No parent drug is identified in the urine
- people with severe acne in complete or near complete cure [3]: Up to 90%
- reduction of sebocyte lipid synthesis ([4]; daily doses as low as 0.1 mg/kg after four weeks): 75%
- reduction of sebaceous gland size ([4]; in vivo): up to 90%

Structure (SMILES): C[C@]12CCC(=O)C=C1[C@@H]1C[C@@H]1[C@H]1[C@@H]3[C@@H]4C[C@@H]4[C@@]4(CCC(=O)O4)[C@@]3(C)CC[C@@H]12 [drospirenone]
- Progestational Activity [1]: 1.5
- Androgen Activity [5]: 0

Structure (SMILES): C#C[C@]1(O)CC[C@H]2[C@@H]3CCC4=CC(=NO)CC[C@@H]4[C@H]3CC[C@@]21CC (mixture of isomers) [norelgestromin]
- Progestational Activity [1]: 1.3
- Androgen Activity [5]: 1.9
